Measured values published in ChEMBL document CHEMBL1130846, “A new class of sulfoxide surfactants derived from Tris. Synthesis and preliminary assessments of their properties” (Bioorg Med Chem Lett, 1998).
Values after ≈ are worked out from the molar mass of the structure shown.

What was measured:
[1] = Water solubility was evaluated; type: ADME; details: read-out: Ws
Rattus norvegicus [2] = species: Rattus norvegicus; assay: Compound was evaluated for the amount of protein solubilized, expressed as percentage weight of freeze-dried nuclear membrane (100 mg) of rat liver; type: functional
Rattus norvegicus [3] = species: Rattus norvegicus; assay: Compound was evaluated for the amount of protein solubilized, expressed as percentage weight of freeze-dried mitochondria (20 mg) of rat liver; type: functional, organism-based
Rattus norvegicus [4] = species: Rattus norvegicus; assay: Compound was evaluated for the amount of protein solubilized, expressed as percentage weight of freeze-dried microsomes (20 mg) of rat liver; type: functional

| Compound | solubility [1] | Weight (Rattus norvegicus [2]) | Weight (Rattus norvegicus [3]) | Weight (Rattus norvegicus [4]) |
| --- | --- | --- | --- | --- |
| CCCCCCCCCC[S+]([O-])CCC(=O)NC(CO)(CO)CO (configuration not stated) | > 10000 µg/mL | 57.4% | 71% | 68.9% |
| CCCCCCCCCCCC[S+]([O-])CCC(=O)NC(CO)(CO)CO (configuration not stated) | > 6000 µg/mL | 52.4% | 65.6% | 62.5% |
| CCCCCCCCCCCCCCCC[S+]([O-])CCC(=O)NC(CO)(CO)CO (configuration not stated) | 85 µg/mL (≈ 189 µM) | 45.7% | 58.6% | 58.4% |
| CCCCCCCCCCCC[S+]([O-])CCC(=O)NC(CO)(CO)CO[C@@H]1O[C@H](CO)[C@H](O)[C@H](O)[C@H]1O (some centres not stated) | > 10000 µg/mL |  |  |  |
| CC(C)(C)CC(C)(C)c1ccc(OCCO)cc1 |  | 62.2% | 74.9% | 76.2% |
| CCCCCCCC[S+]([O-])CCC(=O)NC(CO)(CO)CO (configuration not stated) | > 10000 µg/mL | 55.5% | 69.8% | 71% |

Now from value to molecule, other results behind:

| solubility [1] | Compound | Weight (Rattus norvegicus [2]) | Weight (Rattus norvegicus [3]) | Weight (Rattus norvegicus [4]) |
| --- | --- | --- | --- | --- |
| > 10000 µg/mL | O=C(CC[S+]([O-])CCC(F)(F)C(F)(F)C(F)(F)C(F)(F)C(F)(F)C(F)(F)F)NC(CO[C@H]1O[C@@H](CO)[C@@H](O)[C@@H](O)[C@@H]1O)(CO[C@@H]1O[C@H](CO)[C@H](O)[C@H](O)[C@H]1O)CO[C@@H]1O[C@H](CO)[C@H](O)[C@H](O)[C@H]1O (some centres not stated) |  |  |  |
| > 1500 µg/mL | O=C(CC[S+]([O-])CCC(F)(F)C(F)(F)C(F)(F)C(F)(F)C(F)(F)C(F)(F)C(F)(F)C(F)(F)F)NC(CO)(CO)COC1O[C@H](CO)[C@H](O)[C@H](O)[C@H]1O (some centres not stated) |  |  |  |
| 1200 µg/mL (≈ 2100 µM) | O=C(CC[S+]([O-])CCC(F)(F)C(F)(F)C(F)(F)C(F)(F)C(F)(F)C(F)(F)F)NC(CO)(CO)CO (configuration not stated) | 25.5% | 30.3% | 32.6% |
| 25 µg/mL (≈ 37.2 µM) | O=C(CC[S+]([O-])CCC(F)(F)C(F)(F)C(F)(F)C(F)(F)C(F)(F)C(F)(F)C(F)(F)C(F)(F)F)NC(CO)(CO)CO (configuration not stated) |  |  |  |
